Data on 9 compounds can be found in patent US8999940B2 (Ipsen Pharma S.A.S., priority 2008, dated 2015).

Where no end group is shown, it is not given here. [ ]: non-standard residue; d: D form. The star is where a group is joined. Tyr(3-Cl) = N[C@@H](Cc1ccc(O)c(Cl)c1)C(=O)O; Phe(4-CN) = N#Cc1ccc(C[C@H](N)C(=O)O)cc1; Phe(4-Me) = Cc1ccc(C[C@H](N)C(=O)O)cc1; Desaminotyrosyl = O=C(CCc1ccc(O)cc1)*; Hyp = O=C(O)[C@@H]1C[C@@H](O)CN1; Pip = O=C(O)[C@@H]1CCCCN1; Ac6c = NC1(C(=O)O)CCCCC1; Nle = CCCC[C@H](N)C(=O)O; Ac5c = NC1(C(=O)O)CCCC1; Aib = CC(C)(N)C(=O)O A value given as a limit tells only on which side of the number the result lay.

Series [1] addresses T1, human recombinant GIP receptor (Homo sapiens, UniProt P48546).
T1 construct: expressed in transfected cells; host or cells: CHO-K1 clonal cells (membrane preparation)
T1 sequence (P48546 22-466): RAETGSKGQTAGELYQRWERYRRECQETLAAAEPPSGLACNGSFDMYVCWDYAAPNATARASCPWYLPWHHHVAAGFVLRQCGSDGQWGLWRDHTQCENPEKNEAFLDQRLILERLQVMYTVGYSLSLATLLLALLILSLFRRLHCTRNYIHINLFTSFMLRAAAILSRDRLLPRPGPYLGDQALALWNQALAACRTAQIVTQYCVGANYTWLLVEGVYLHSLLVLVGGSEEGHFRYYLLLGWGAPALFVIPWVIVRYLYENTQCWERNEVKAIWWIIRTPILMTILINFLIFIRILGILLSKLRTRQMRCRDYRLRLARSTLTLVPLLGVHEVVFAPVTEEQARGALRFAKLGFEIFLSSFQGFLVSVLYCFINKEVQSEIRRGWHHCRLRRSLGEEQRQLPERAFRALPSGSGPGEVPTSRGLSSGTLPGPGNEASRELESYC
The experiment in a line: In vitro hGIP receptor binding assay. As for the experimental part: A. In Vitro hGIP Receptor Binding Assay […] The incubations were terminated by rapid filtration through GF/C filters (pre-soaked in 0.5% polyethylenimine) using a Brandel filtration manifold. Each tube and filter were then washed three times with 5-ml aliquots of ice-cold buffer.

Series [2] in a line: Rat plasma half-life assay. The series is classed as in vitro ADME. As to conditions: 37° C., LC-MS, read-out: Rat Plasma T½ (converted).
The nature of series [3]: Human plasma half-life assay. The format is in vitro ADME. As to conditions: 37° C., LC-MS, read-out: Human Plasma T½ (converted).
A further series concerns insulin secretion. The experiment in a line: Determination of in vivo insulin secretion in normal rats. As to conditions: fasted male Sprague Dawley rats, compound iv with glucose (1 g/kg), plasma insulin up to 20 minutes post-glucose. As for the experimental part:
D. Determination of in vivo Insulin Secretion in Normal Rats Male Sprague Dawley rats with a body weight of approximately 275-300 g were used as experimental subjects. The day prior to the treatment, right atrial cannulae were implanted via the jugular vein under chlorohydrate. Each cannula was filled with 100 u/ml heparin saline and tied. […] The day of the experiment, aliquots of compound were thawed, brought to room temperature and vortexed thoroughly. […] At time 0, a 500 μl blood sample was withdrawn through the cannula. Next, either the vehicle or the appropriate dose of the compound was injected into the cannula and pushed in with the glucose (1 g/kg) or vehicle solution. Finally, 500 μl of volume of heparinized saline (10 u/ml) was used to push in the remaining glucose through the cannula. […] The plasma was collected from the blood samples by centrifugation, and stored at −20° C. until assay for insulin content.

For `CC[C@H](C)[C@H](NC(=O)[C@H](CCCCN)NC(=O)[C@H](CC(=O)O)NC(=O)[C@H](CCSC)NC(=O)[C@H](C)NC(=O)[C@@H](NC(=O)C1(NC(=O)[C@H](Cc2ccc(O)cc2)NC(=O)[C@H](CC(=O)O)NC(=O)[C@H](CO)NC(=O)[C@@H](NC(=O)[C@H](Cc2ccccc2)NC(=O)[C@@H](NC(=O)CNC(=O)[C@H](CCC(=O)O)NC(=O)C(C)(C)NC(=O)[C@@H](N)Cc2ccc(O)c(OC)c2)[C@@H](C)O)[C@@H](C)CC)CCCC1)[C@@H](C)CC)C(=O)N[C@@H](Cc1c[nH]cn1)C(=O)N[C@@H](CCC(N)=O)C(=O)N[C@@H](CCC(N)=O)C(=O)N[C@@H](CC(=O)O)C(=O)N[C@@H](Cc1ccccc1)C(=O)N[C@H](C(=O)N[C@@H](CC(N)=O)C(=O)N[C@@H](Cc1c[nH]c2ccccc12)C(=O)N[C@@H](CC(C)C)C(=O)N[C@@H](CC(C)C)C(=O)N[C@@H](C)C(=O)N[C@@H](CCC(N)=O)C(=O)N[C@@H](CCCCN)C(=O)NCC(=O)N[C@@H](CCCCN)C(=O)N[C@@H](CCCCN)C(=O)N[C@@H](CC(N)=O)C(=O)N[C@@H](CC(=O)O)C(=O)N[C@@H](Cc1c[nH]c2ccccc12)C(=O)N[C@@H](CCCCN)C(=O)N[C@@H](Cc1c[nH]cn1)C(=O)N[C@@H](CC(N)=O)C(=O)N[C@H](C(=O)NC1(C(=O)N[C@@H](CCC(N)=O)C(=O)O)CCCC1)[C@@H](C)CC)C(C)C` [Example 28, (3MeO-Tyr^1, Aib^2, A5c^11, 41)hGIP(1-42)-OH], in series [1], the Ki turned out to be 1.24 nM. The half-life at 0.1 mg/ml was 10 h in series [2] and more than 57 h in series [3]. Besides, in the series on insulin secretion, the “AUC (total insulin secretion)” value came to 92.88.

For the compound `CC[C@H](C)[C@H](NC(=O)[C@H](CCCCN)NC(=O)[C@H](CC(=O)O)NC(=O)[C@H](CCSC)NC(=O)[C@H](C)NC(=O)[C@@H](NC(=O)C1(NC(=O)[C@H](Cc2ccc(O)cc2)NC(=O)[C@H](CC(=O)O)NC(=O)[C@H](CO)NC(=O)[C@@H](NC(=O)[C@H](Cc2ccccc2)NC(=O)[C@@H](NC(=O)CNC(=O)[C@H](CCC(=O)O)NC(=O)C(C)(C)NC(=O)[C@@H](N)Cc2ccc(O)c(OC)c2)[C@@H](C)O)[C@@H](C)CC)CCCC1)[C@@H](C)CC)C(=O)N[C@@H](Cc1c[nH]cn1)C(=O)N[C@@H](CCC(N)=O)C(=O)N[C@@H](CCC(N)=O)C(=O)N[C@@H](CC(=O)O)C(=O)N[C@@H](Cc1ccccc1)C(=O)N[C@H](C(=O)N[C@@H](CC(N)=O)C(=O)N[C@@H](Cc1c[nH]c2ccccc12)C(=O)N[C@@H](CC(C)C)C(=O)N[C@@H](CC(C)C)C(=O)N[C@@H](C)C(=O)N[C@@H](CCC(N)=O)C(=O)N[C@@H](CCCCN)C(=O)NCC(=O)N[C@@H](CCCCN)C(=O)N[C@@H](CCCCN)C(=O)N[C@@H](CC(N)=O)C(=O)N[C@@H](CC(=O)O)C(=O)N[C@@H](Cc1c[nH]c2ccccc12)C(=O)N[C@@H](CCCCN)C(=O)N[C@@H](Cc1c[nH]cn1)C(=O)N[C@@H](CC(N)=O)C(=O)N[C@H](C(=O)N[C@H](C(=O)N[C@@H](CCC(N)=O)C(=O)N[C@@H](Cc1c[nH]cn1)C(=O)O)[C@@H](C)O)[C@@H](C)CC)C(C)C` [Example 73, (3MeO-Tyr^1, Aib^2, A5c^11, His^43)hGIP(1-43)-OH], in series [1], the Ki is 3.9 nM. In addition, the half-life at 0.1 mg/ml in series [2] was 11.8 h; in series [3] it was 28.6 h.

Consider `CC[C@H](C)[C@H](NC(=O)[C@H](CCCCN)NC(=O)[C@H](CC(=O)O)NC(=O)C1(NC(=O)[C@H](C)NC(=O)[C@@H](NC(=O)C2(NC(=O)[C@H](Cc3ccc(O)cc3)NC(=O)[C@H](CC(=O)O)NC(=O)[C@H](CO)NC(=O)[C@@H](NC(=O)[C@H](Cc3ccccc3)NC(=O)[C@@H](NC(=O)CNC(=O)[C@H](CCC(=O)O)NC(=O)C(C)(C)NC(=O)[C@@H](N)Cc3ccc(O)c(OC)c3)[C@@H](C)O)[C@@H](C)CC)CCCC2)[C@@H](C)CC)CCCC1)C(=O)N[C@@H](Cc1c[nH]cn1)C(=O)N[C@@H](CCC(N)=O)C(=O)N[C@@H](CCC(N)=O)C(=O)N[C@@H](CC(=O)O)C(=O)N[C@@H](Cc1ccccc1)C(=O)N[C@H](C(=O)N[C@@H](CC(N)=O)C(=O)N[C@@H](Cc1c[nH]c2ccccc12)C(=O)N[C@@H](CC(C)C)C(=O)N[C@@H](CC(C)C)C(=O)N[C@@H](C)C(=O)N[C@@H](CCC(N)=O)C(=O)N[C@@H](CCCCN)C(=O)NCC(=O)N[C@@H](CCCCN)C(=O)N[C@@H](CCCCN)C(=O)N[C@@H](CC(N)=O)C(=O)N[C@@H](CC(=O)O)C(=O)N[C@@H](Cc1c[nH]c2ccccc12)C(=O)N[C@@H](CCCCN)C(=O)N[C@@H](Cc1c[nH]cn1)C(=O)N[C@@H](CC(N)=O)C(=O)N[C@H](C(=O)N[C@H](C(=O)N[C@@H](CCC(N)=O)C(=O)N[C@@H](Cc1c[nH]cn1)C(=O)O)[C@@H](C)O)[C@@H](C)CC)C(C)C` [Example 74, (3MeO-Tyr^1, Aib^2, A5c^11, 14, His^43)hGIP(1-43)-OH], for which the Ki in series [1] is 9.34 nM. Also, the half-life at 0.1 mg/ml in series [2] is 12.8 h; in series [3], more than 50 h.

Take `CC[C@H](C)[C@H](NC(=O)[C@H](CCCCN)NC(=O)[C@H](CC(=O)O)NC(=O)[C@H](CCSC)NC(=O)[C@H](C)NC(=O)[C@@H](NC(=O)C1(NC(=O)[C@H](Cc2ccc(O)cc2)NC(=O)[C@H](CC(=O)O)NC(=O)[C@H](CO)NC(=O)[C@@H](NC(=O)[C@H](Cc2ccccc2)NC(=O)[C@@H](NC(=O)CNC(=O)[C@H](CCC(=O)O)NC(=O)C(C)(C)NC(=O)[C@@H](N)CCc2ccc(O)cc2)[C@@H](C)O)[C@@H](C)CC)CCCC1)[C@@H](C)CC)C(=O)N[C@@H](Cc1c[nH]cn1)C(=O)N[C@@H](CCC(N)=O)C(=O)N[C@@H](CCC(N)=O)C(=O)N[C@@H](CC(=O)O)C(=O)N[C@@H](Cc1ccccc1)C(=O)N[C@H](C(=O)N[C@@H](CC(N)=O)C(=O)N[C@@H](Cc1c[nH]c2ccccc12)C(=O)N[C@@H](CC(C)C)C(=O)N[C@@H](CC(C)C)C(=O)N[C@@H](C)C(=O)N[C@@H](CCC(N)=O)C(=O)N[C@@H](CCCCN)C(=O)NCC(=O)N[C@@H](CCCCN)C(=O)N[C@@H](CCCCN)C(=O)N[C@@H](CC(N)=O)C(=O)N[C@@H](CC(=O)O)C(=O)N[C@@H](Cc1c[nH]c2ccccc12)C(=O)N[C@@H](CCCCN)C(=O)N[C@@H](Cc1c[nH]cn1)C(=O)N[C@@H](CC(N)=O)C(=O)N[C@H](C(=O)N[C@H](C(=O)N[C@@H](CCC(N)=O)C(=O)N[C@@H](Cc1c[nH]cn1)C(=O)O)[C@@H](C)O)[C@@H](C)CC)C(C)C` [Example 80, (hTyr^1, Aib^2, A5c^11, His^43)hGIP(1-43)-OH]: in series [1], the Ki was 9.42 nM. Moreover, the results for the half-life at 0.1 mg/ml in series [2] and in series [3] were 18.4 h and 22.6 h, respectively.

On to “Desaminotyrosyl-A[Hyp]GTF[Ac6c]SDYSIAMDKIHQQDFVNWLLAQKGKKNDWKHNITQ [Example 7, (4Hppa^1, 4Hyp^3, A6c^7)hGIP(1-42)-OH]”, for which the Ki in series [1] was 251 nM. Besides, the half-life at 0.1 mg/ml was 6.8 h in series [2] and 38.5 h in series [3].

Consider “Desaminotyrosyl-A[Pip]GTF[Ac6c]SDYSIAMDKIHQQDFVNWLLAQKGKKNDWKHNITQ [Example 8, (4Hppa^1, hPro^3, A6c^7)hGIP(1-42)-OH]”, for which the Ki in series [1] was 707 nM. The half-life at 0.1 mg/ml was 12.9 h in series [2] and more than 53 h in series [3].

In the case of “H-[Tyr(3-Cl)][Aib]EGTFISDY[Ac5c]IA[Nle]DKIHQQDFVNWLLAQKGKKNDWKHNITQ-OH [Example 14, (3Cl-Tyr^1, Aib^2, A5c^11, Nle^14)hGIP(1-42)-OH]”, the Ki in series [1] came to 0.42 nM. In addition, the results for the half-life at 0.1 mg/ml in series [2] and in series [3] were 27.4 h and 52.1 h, respectively. Also, the “AUC (total insulin secretion)” value in the series with insulin secretion turned out to be 189.54.

For the compound “[Phe(4-CN)][Aib]EGTFISDY[Ac5c]IAMDKIHQQDFVNWLLAQKGKKNDWKHNITQH-OH [Example 79, (4CN-Phe^1, Aib^2, A5c^11, His^43)hGIP(1-43)-OH]”, the Ki in series [1] turned out to be 5.12 nM. The half-life at 0.1 mg/ml is 21.7 h in series [2] and 26.3 h in series [3].

As for “[Phe(4-Me)][Aib]EGTFISDY[Ac5c]IAMDKIHQQDFVNWLLAQKGKKNDWKHNITQH-OH [Example 78, (4Me-Phe^1, Aib^2, A5c^11, His^43)hGIP(1-43)-OH]”, the Ki in series [1] was 9.13 nM. Also, the half-life at 0.1 mg/ml in series [2] is more than 52 h; in series [3], 14.9 h.

The Ki is the equilibrium dissociation constant of an inhibitor or competing ligand from its target.
